Data on 9 molecules can be found in patent publication US6303612A, “Derivatives of hydroxyphenylsulfanylbenzoic and hydroxphenylsulfanylarylacetic acids” (Leciva, A.S., priority 1998, dated 2001).

≈ marks a conversion by molar mass, not a printed value. Structures can show the parent of a compound that is named as a salt. Where two headings read alike, the source gives them in different places.

Assay [1] relates to peroxidation of lipids from the hepatic cells membranes. In words: Antioxidant effect in vitro. Particulars: at 100 μg. Format: biochemical. The text has this:
Antioxidant Effect in vitro
The end-product, malonic dialdehyde, was transformed to coloured complex with thiobarbituric acid and determined spectrophotometrically. The antioxidant effect was expressed in % of peroxidation inhibition in the presence of the compound tested in comparison to a control sample.

The subject of assay [2] is LTB4 production in rat polymorphonuclear cells. In words: Ex vivo inhibition of LTB4 production (LTB4 biosynthesis). Format: cell-based. Particulars: for Inh. of LTB4 biosynth., %: at 30 μg (%/μg); for IC50: Rattus norvegicus, read-out: Inh. of LTB4 biosynth., IC50. As for the experimental part: Ex vivo Inhibition of LTB4 Production The production of LTB4 was determined in rat polymorphonuclear cells from pleural exudate elicited by heat-activated rat serum (Palmer R. M. J., Salmon J. A.: Immunology 50, 65 (1983)). The cells were stimulated with the Ca ionophore A 23187 (Sigma) and incubated with various concentrations of the drugs tested. The sample containing only buffer was used for the determination of unaffected biosynthesis; the complete inhibition was measured in a sample with 100 μg of NDGA in 1 ml. LTB4 was determined in supernatant using a commercial RIA kit (Amersham).

The subject of a further assay is rats. In words: Inhibition of carrageenan-induced pleuritis in rats. The assay is classed as in vivo. Particulars: for inhibition in vivo at 100 mg/kg: Rattus norvegicus, po, 4 h. On the procedure: Inhibition of Carrageenan-induced Pleuritis in Rats
(Hidaka T. J.: Pharm. Pharmacol. 38, 242 (1986) 1 ml of 0.5% carrageenan solution in saline was administered intrapleurally to experimental animals under mild ether anesthesia. Test drugs were administered in single oral dose 1 h before carrageenan injection, 4 h following the carrageenan application the rats were killed and exudate was withdrawn from opened pleural cavity. The volume of exudate, its cellularity and total cell number were determined.

The next assay has as its target LTB4 receptor (Cavia porcellus, UniProt H0VYV8). Nature of the assay: LTB4 receptor binding study. Particulars: 3H-LTB4, guinea-pig spleen membranes; for IC50: read-out: Inh. of LTB4 rec. binding, IC50; for inhibition at 20 µM: read-out: Inh. of LTB4 rec. binding, %. As for the experimental part: LTB4 Receptor Binding Study
A slightly modified method of Cheng and coworkers (Cheng J. B. et al.: J. Pharm. Expl. Ther. 236, 126 (1986)) was used. The membrane fraction was prepared from male guinea-pig spleen; 2 mg of membranes were incubated with 0.3 nM ^3 H-LTB4 at 25° C. for 30 min in 100 μl of the incubated mixture. The nonspecific binding was determined in the presence of 0.1 μM LTB4. The membranes were filtered though Whatman GF/C paper and washed triply with buffer. The radioactivity was measured by liquid scintillation spectrometry, and the specific binding of ^3 H-LTB4 to the receptor was determined.

In another assay the test system is Wistar-Han rats. Nature of the assay: Inhibition of carrageenan edema. The assay is classed as in vivo. Particulars: dose 100 mg/kg; for inhibition in vivo at 100 mg/kg: Rattus norvegicus, read-out: CE: inhibition of carrageenan-induced edema, % of inh. On the technique in general: In the carrageenan paw model, swelling and tenderness develop within hours.
The next assay has as its target T1, LTD4 receptor (Cavia porcellus, UniProt Q2NNR5).
T1 construct: The membrane fraction was prepared from male guinea-pig lungs; from tissue; host or cells: male guinea-pig lung membranes
T1 sequence (Q2NNR5 1-340): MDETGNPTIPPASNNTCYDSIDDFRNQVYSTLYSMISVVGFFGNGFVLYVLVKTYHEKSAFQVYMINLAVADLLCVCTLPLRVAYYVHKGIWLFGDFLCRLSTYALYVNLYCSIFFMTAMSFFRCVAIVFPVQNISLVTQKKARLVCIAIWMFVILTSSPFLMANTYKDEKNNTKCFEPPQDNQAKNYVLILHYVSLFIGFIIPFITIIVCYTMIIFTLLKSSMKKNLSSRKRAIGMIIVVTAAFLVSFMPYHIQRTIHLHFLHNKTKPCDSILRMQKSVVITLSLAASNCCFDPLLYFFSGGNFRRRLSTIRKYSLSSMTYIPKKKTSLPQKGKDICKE
Nature of the assay: LTD4 receptor binding study. Particulars: 3H-LTD4, guinea-pig lung membranes; for IC50: read-out: Inh. of LTD4 rec. binding, IC50; for inhibition at 20 µM / inhibition at 100 µM: read-out: Inh. of LTD4 rec. binding, %. As for the experimental part: LTD4 Receptor Binding Study
This study was performed according to the method of Burns and coworkers (Burns R. F. et al.: Life Sci. 33, 645 (1983)). The membrane fraction was prepared from male guinea-pig lungs, and 4 mg of this fraction were incubated with 0.4 nM ^3 H-LTD4 for 60 min at 25° C. in 100 μl of the incubated mixture. The nonspecific binding was determined in the presence of 0.1 μM LTD4. The filtration of the membranes, washing, and radioactivity measurement were as above.

The subject of a further assay is male mice. Nature of the assay: Inhibition of arachidonic acid-induced ear inflammation in mice. Format: in vivo. The note with it: Mus musculus, po, 1 h. On the procedure: Inhibition of Arachidonic Acid-induced Ear Inflammation in Mice (Opas E. E. et al.: J. Invest. Dermatol. 84, 253 (1985) Ear inflammation was induced in male mice by 20 μl of arachidonic acid dissolved in acetone (concentration 100 mg/ml). The mice were sacrificed 1 h after application of arachidonic acid and the ears were cut off by standard means. The other, vehicle-treated ear of the same animal served as a control. The degree of ear hyperemia and the weight of ear lobes were evaluated. Test compounds were administered orally 1 h before the induction of inflammation.

[3] abbreviates: dose 100 mg/kg, oral, values with mark n: p > 0.05, 100 mg/kg.
Where [4] appears, read: dose 100 mg/kg, oral, values with mark n: p > 0.05, read-out: Experimental pleuritis, A: volume of exudate in pleural cavity, % of inh.
[5] abbreviates: dose 100 mg/kg, oral, values with mark n: p > 0.05, read-out: Experimental pleuritis, B: number of cells, % of inh.
[6] abbreviates: dose 100 mg/kg, oral, values with mark n: p > 0.05, read-out: Experimental pleuritis, C: cellularity in a volume unit, % of inh.
The mark [7] stands for this setting: values with mark n: p > 0.05, read-out: Ear edema, D: edema of ear lobe, % of inh.
The mark [8] stands for this setting: values with mark n: p > 0.05, read-out: Ear edema, E: hyperemia of ear lobe, % of inh.

LTB4 receptor, sequence (H0VYV8 1-348): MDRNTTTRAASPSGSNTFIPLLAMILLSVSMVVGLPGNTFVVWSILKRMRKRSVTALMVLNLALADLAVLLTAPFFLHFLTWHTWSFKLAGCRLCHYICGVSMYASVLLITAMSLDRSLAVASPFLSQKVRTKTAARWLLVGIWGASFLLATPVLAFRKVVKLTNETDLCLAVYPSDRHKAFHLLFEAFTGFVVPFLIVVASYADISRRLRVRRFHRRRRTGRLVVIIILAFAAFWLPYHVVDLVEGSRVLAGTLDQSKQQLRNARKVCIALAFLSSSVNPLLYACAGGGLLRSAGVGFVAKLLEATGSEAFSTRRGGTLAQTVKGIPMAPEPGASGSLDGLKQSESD

For the molecule `O=C(O)c1ccc(Sc2ccc(OCc3ccc4ccccc4n3)cc2)cc1` [Compound 24, Tromethammonium salt of 4-(4-(Quinoline-2-ylmethoxy)phenylsulfanyl)benzoic Acid], the “Antiox. effect, % of peroxidation inhibition” value in assay [1] is recorded as 13%. Further, in assay [2], the “Inh. of LTB4 biosynth., IC50” value stood at 0.18 µg/mL and the “Inh. of LTB4 biosynth., %” value is recorded as 99%. In the assay with rats (setting [3]), the “Experimental pleuritis, A: volume of exudate in pleural cavity, % of inh.” value is reported as 23%; the “Experimental pleuritis, B: number of cells, % of inh.” value amounted to 32%; the “Experimental pleuritis, C: cellularity in a volume unit, % of inh.” value came out at 6%. Also, the IC50 at LTB4 receptor was determined as 14.7 µM. In addition, the “Inh. of LTB4 rec. binding, %” value at LTB4 receptor (at 20 μM) was determined as 42%. Besides, in the assay with Wistar-Han rats, the “CE: inhibition of carrageenan-induced edema, % of inh.” value turned out to be 27%. Further, at LTD4 receptor, the 50% inhibitory concentration (IC50) is 0.31 µM and the inhibition at 20 µM was found to be 95%.

Consider `O=C(O)Cc1ccc(Sc2ccc(OCc3ccc4ccccc4n3)cc2)cc1` [Compound 30, 4-(4-(Quinoline-2-ylmethoxy)phenylsulfanyl)phenylacetic Acid], for which, in assay [1], the “Antiox. effect, % of peroxidation inhibition” value came to 14%. Besides, the figures for the 50% inhibitory concentration (IC50) (in assay [2]; on LTB4 receptor; on LTD4 receptor) were 0.004 µg/mL (≈ 0.00996 µM), 20.5 µM and 2.3 µM, respectively. In assay [2], the “Inh. of LTB4 biosynth., %” value is listed as 94%. In addition, the inhibition in vivo at 100 mg/kg worked out at 27% with rats (setting [4]), 30% with rats (setting [5]), 2% in the assay on rats (setting [6]) and 41% in the assay with Wistar-Han rats. Besides, the inhibition at 20 µM on LTB4 receptor (at 20 μM) worked out at 43%; at LTD4 receptor it was 80%.

In the case of `O=C(O)c1ccc(Sc2cccc(OCc3ccc4ccccc4n3)c2)cc1` [Compound 18], the “Antiox. effect, % of peroxidation inhibition” value in assay [1] worked out at 16%. Moreover, the inhibition in vivo at 200 mg/kg in the assay with male mice (setting [7]) came to 13%; with male mice (setting [8]), 8%. Besides, the figures for the IC50 (in assay [2]; on LTB4 receptor; on LTD4 receptor) were 0.02 µg/mL (≈ 0.0516 µM), 92.9 µM and 1.6 µM, respectively. Moreover, in assay [2], the “Inh. of LTB4 biosynth., %” value amounted to 100%. Moreover, the inhibition in vivo at 100 mg/kg in the assay on rats (setting [4]) was 28%; in the assay with rats (setting [5]), 29%; in the assay with rats (setting [6]), 1%; with Wistar-Han rats, 10%. Further, at LTB4 receptor (at 20 μM), the inhibition at 20 µM was 24%. Besides, at LTD4 receptor, the inhibition at 100 µM came out at 100%.

In the case of `NC(=O)N1C(=O)C(=C(O)c2cccs2)c2cc(Cl)ccc21` [Tenidap Na^+, reference compound], the inhibition in vivo at 200 mg/kg in the assay on male mice (setting [7]) was 14%; with male mice (setting [8]), 76%. The values for the IC50 (in assay [2]; at LTD4 receptor) were 1.04 µg/mL (≈ 3.24 µM) and 418 µM, respectively. Further, the “Inh. of LTB4 biosynth., %” value in assay [2] came to 100%. Further, the inhibition in vivo at 100 mg/kg came to 73% in the assay with rats (setting [5]); 72% in the assay on rats (read-out: Experimental pleuritis, A: volume of exudate in pleural cavity, % of inh.); 6% in the assay on rats (read-out: Experimental pleuritis, C: cellularity in a volume unit, % of inh.); 61% in the assay on Wistar-Han rats. The inhibition at 20 µM on LTB4 receptor (at 20 μM) is 8%. For the same molecule, at LTD4 receptor, the inhibition at 100 µM is 10%.

`O=C(O)c1ccccc1Sc1ccc(OCCN2CCN(Cc3ccc(Cl)cc3)CC2)cc1` [Compound 11, Hydrogenmaleate of 2-(4-(2-(1-(4-Chlorobenzyl)piperazin-4-yl)ethoxy)-phenylsulfanyl)benzoic Acid]: the “Antiox. effect, % of peroxidation inhibition” value in assay [1] is 10%. Moreover, the inhibition in vivo at 200 mg/kg with male mice (setting [7]) amounted to 22%; in the assay on male mice (setting [8]) it was 0%. The IC50 came to 0.02 µg/mL (≈ 0.0414 µM) in assay [2] and 120 µM on LTD4 receptor. In addition, the “Inh. of LTB4 biosynth., %” value in assay [2] worked out at 97%. For the same molecule, the inhibition at 20 µM at LTB4 receptor (at 20 μM) was 25%. For the same molecule, the inhibition in vivo at 100 mg/kg with Wistar-Han rats was 33%. Further, on LTD4 receptor, the inhibition at 100 µM turned out to be 36%.

For the molecule `COc1cc(C(=O)NS(=O)(=O)c2ccccc2C)ccc1Cc1cn(C)c2ccc(NC(=O)OC3CCCC3)cc12` [Accolate, reference compound], in assay [2], the IC50 was 1.12 µg/mL (≈ 1.95 µM) and the “Inh. of LTB4 biosynth., %” value turned out to be 98%. In addition, the inhibition at 20 µM at LTB4 receptor (at 20 μM) came to 0%. In addition, at LTD4 receptor, the IC50 turned out to be 0.03 µM and the inhibition at 100 µM came to 94%.

Turning to `COC(=O)c1ccccc1Sc1cccc(OCCCN2CCN(CCO)CC2)c1` [Compound 15, Bis-hydrogenmaleate of Methyl 2-(3-(3-(1-(2-hydroxyethyl)piperazin-4-yl)-propoxy)phenyl-sulfanyl)benzoate], the “Antiox. effect, % of peroxidation inhibition” value in assay [1] stood at 0%. In addition, the inhibition in vivo at 200 mg/kg in the assay on male mice (setting [7]) was determined as 7%; with male mice (setting [8]) it was 3%. Further, the IC50 in assay [2] is 12.6 µg/mL (≈ 29.3 µM). Further, in assay [2], the “Inh. of LTB4 biosynth., %” value was determined as 88%. Further, the inhibition in vivo at 100 mg/kg in the assay on rats (setting [4]) amounted to 2%; in the assay on rats (setting [5]), 15%; in the assay on Wistar-Han rats it was 9%. In addition, the inhibition at 100 µM on LTD4 receptor is 22%.

For the molecule `O=C(O)Cc1ccccc1Sc1ccc(OCc2ccc3cc(Cl)ccc3n2)cc1` [Compound 32, 2-(4-(6-Chloroquinoline-2-ylmethoxy)phenylsulfanyl)phenylacetic Acid], the “Antiox. effect, % of peroxidation inhibition” value in assay [1] was found to be 14%. The “Inh. of LTB4 biosynth., %” value in assay [2] is listed as 62%. Also, the IC50 on LTB4 receptor was found to be 30 µM. Also, the inhibition at 20 µM at LTB4 receptor (at 20 μM) stood at 38%. Also, at LTD4 receptor, the half-maximal inhibitory concentration (IC50) came out at 1 µM and the inhibition at 100 µM came to 81%.

With `O=C(O)c1ccccc1Sc1ccc(OCCCCN2CCN(Cc3ccc(Cl)cc3)CC2)cc1` [Compound 14], in assay [2], the IC50 is 9.5 µg/mL (≈ 18.6 µM) and the “Inh. of LTB4 biosynth., %” value is reported as 100%. Further, the inhibition at 20 µM at LTB4 receptor (at 20 μM) came out at 16%. Also, on LTD4 receptor, the IC50 is 33 µM and the inhibition at 100 µM was found to be 86%.

By IC50 is commonly meant the concentration at which inhibition is half-maximal.
